Data taken from EPA's ToxValDB 9.5 (doi:10.2903/j.efsa.2017.4903).

How the values were obtained:
Rattus norvegicus = settings: for LOAEL: subchronic, duration: 90 days, clinical chemistry; for NOAEL: reproduction developmental
Hypoaspis aculeifer = settings: chronic/long-term; duration: 14 days; reproduction
Pleurozium sp. = settings: acute; duration: 72 hours; other
Folsomia candida = settings: chronic/long-term; duration: 28 days; mortality
Pontoscolex corethrurus = settings: chronic/long-term
Coturnix japonica = settings: acute; oral; mortality
Colinus virginianus = settings: reproduction developmental
Apis mellifera = settings: acute, mortality
Danio rerio = settings: chronic; reproduction

Structure (SMILES)	LOAEL (Rattus norvegicus) [mg/kg-day]	NOEC (Hypoaspis aculeifer) [mg/kg]	NOEC (Pleurozium sp.) [mg/L]	NOEC (Folsomia candida) [mg/kg]	NOEC (Pontoscolex corethrurus; reproduction) [mg/kg]	LD50 (Coturnix japonica) [mg/kg-day]	LD50 (Rattus norvegicus; acute, oral, mortality) [mg/kg-day]	NOAEL (Rattus norvegicus; body weight) [mg/kg-day]	NOAEL (Rattus norvegicus; immunology) [mg/kg-day]	NOAEL (Colinus virginianus) [mg/kg-day]	NOAEL (Canidae; acute, oral, Beagle, mobility) [mg/kg-day]	NOAEL (Canidae; chronic, duration: 60 weeks, oral, diet, Beagle, organ weight) [mg/kg-day]	NOAEL (Canidae; short-term, duration: 28 days, Dog Other) [mg/kg-day]	LD50 (Apis mellifera; dermal) [µg/piece]	LD50 (Apis mellifera; oral, unspecified) [µg/piece]	NOEC (Pontoscolex corethrurus; growth) [mg/kg]	NOEC (Danio rerio) [mg/L]
Nc1ccc(O)c(Cl)c1 [3-Chloro-4-hydroxyaniline]	10																
Nc1cccc(Cl)c1 [3-Chloroaniline]	10	50	1	9.5	125												
CC(C)OC(=O)Nc1cccc(Cl)c1 [Chlorpropham]				17.2		> 2000	4200	50	44.5	94.7	50	5	5	96.1	505	30	0.32
